Source: ChEMBL document CHEMBL3864169, “Quinazoline Carboxamides as Selective Antagonists of Adenosine 2A Receptor” (ACS Med Chem Lett, 2016)

Biological target: Adenosine receptor A2a (Homo sapiens, UniProt P29274)
Assay: Displacement of [3H]5-amino-7-[2- phenethyl]-2-(furan-2-yl)-7H-pyrazolo[4,3-e][l,2,4]triazolo[l,5-c]pyrimidine from human adenosine A2A receptor expressed in HEK293 cell membranes measured after 1 hr by TopCount scintillation counting method

Chain of Adenosine receptor A2a (P29274 whole entry): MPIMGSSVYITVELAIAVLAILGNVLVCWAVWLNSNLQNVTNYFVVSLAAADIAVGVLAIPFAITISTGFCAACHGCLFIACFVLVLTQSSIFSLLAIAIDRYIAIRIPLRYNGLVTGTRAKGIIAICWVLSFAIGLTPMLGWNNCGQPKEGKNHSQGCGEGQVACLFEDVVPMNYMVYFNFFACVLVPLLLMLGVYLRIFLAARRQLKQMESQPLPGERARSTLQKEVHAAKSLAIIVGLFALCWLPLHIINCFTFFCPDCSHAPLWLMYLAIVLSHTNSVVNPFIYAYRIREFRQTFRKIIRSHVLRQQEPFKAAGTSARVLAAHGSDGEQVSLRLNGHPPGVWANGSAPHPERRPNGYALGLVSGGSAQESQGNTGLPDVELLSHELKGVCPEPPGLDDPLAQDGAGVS

Ki: 1 nM
Structure (SMILES): CC(C)OCc1cccc(CNC(=O)c2nc(N)nc3c(F)cccc23)n1
